Laboratory results: patent US20100063282A1, “Glucocorticoid Mimetics, Methods of Making Them, Pharmaceutical Compositions, and Uses Thereof” (BOEHRINGER INGELHEIM INTERNATIONAL GMBH, priority 2007, published 2010)

Assays:
[1] = target: T1, human glucocorticoid receptor (GR) complex (Homo sapiens, UniProt P04150); test: Glucocorticoid receptor competitive binding assay (fluorescence polarization); details: competition with TAMRA-labeled dexamethasone, GR-containing baculovirus lysate, 1 hour at room temperature
T1 construct: made in house; host or cells: insect cells (baculovirus expression); used as crude lysate
T1 sequence (P04150 1-777): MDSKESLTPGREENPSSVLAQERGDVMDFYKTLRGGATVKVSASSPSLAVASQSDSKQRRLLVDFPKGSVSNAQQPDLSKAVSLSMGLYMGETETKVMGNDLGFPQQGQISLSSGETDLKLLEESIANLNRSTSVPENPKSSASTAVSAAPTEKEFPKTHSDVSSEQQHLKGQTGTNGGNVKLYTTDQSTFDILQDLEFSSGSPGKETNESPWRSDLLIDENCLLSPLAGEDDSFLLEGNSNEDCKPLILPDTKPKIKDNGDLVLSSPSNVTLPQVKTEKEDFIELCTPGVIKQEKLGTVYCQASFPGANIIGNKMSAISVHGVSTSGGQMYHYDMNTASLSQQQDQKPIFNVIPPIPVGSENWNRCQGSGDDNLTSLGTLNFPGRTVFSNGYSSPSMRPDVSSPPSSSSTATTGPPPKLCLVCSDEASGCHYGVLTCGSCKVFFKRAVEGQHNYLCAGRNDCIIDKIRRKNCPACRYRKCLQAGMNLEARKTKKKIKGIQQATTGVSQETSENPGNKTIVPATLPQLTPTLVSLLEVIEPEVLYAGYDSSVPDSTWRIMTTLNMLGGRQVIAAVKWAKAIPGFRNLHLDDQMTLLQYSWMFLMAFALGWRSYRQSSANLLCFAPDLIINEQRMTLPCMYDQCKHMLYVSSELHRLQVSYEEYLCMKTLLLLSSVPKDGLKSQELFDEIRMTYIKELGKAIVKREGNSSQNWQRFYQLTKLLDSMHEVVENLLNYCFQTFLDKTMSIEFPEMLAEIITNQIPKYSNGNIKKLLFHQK
Method: Compounds of the invention were evaluated for binding to the steroid receptor by a fluorescence polarization competitive binding assay. Detailed descriptions for preparation of recombinant glucocorticoid receptor (GR) complex used in the assay is described in U.S. Patent Application Publication No. US 2003/0017503, filed May 20, 2002, and incorporated herein by reference in its entirety. Preparation of the tetramethylrhodamine (TAMRA)-labeled dexamethasone probe was accomplished using a standard literature procedure (M. Pons et al., J. Steroid Biochem., 1985, 22, pp. 267-273).
The affinity of the probe for the steroid receptor was then determined in a titration experiment. The fluorescence polarization value of the probe in assay buffer was measured on an SLM-8100 fluorometer using the excitation and emission maximum values described above. Aliquots of expression vector lysate were added and fluorescence polarization was measured after each addition until no further change in polarization value was observed. Non-linear least squares regression analysis was used to calculate the dissociation constant of the probe from the polarization values obtained for lysate binding to the probe.
This assay uses fluorescence polarization (FP) to quantitate the ability of test compounds to compete with tetramethylrhodamine (TAMRA)-labeled dexamethasone for binding to a human glucocorticoid receptor (GR) complex prepared from an insect expression system. The assay buffer was: 10 mM TES, 50 mM KCl, 20 mM Na2MoO4.2H2O, 1.5 mM EDTA, 0.04% w/v CHAPS, 10% v/v glycerol, 1 mM dithiothreitol, pH 7.4. Test compounds were dissolved to 1 mM in neat DMSO and then further diluted to 10× assay concentration in assay buffer supplemented with 10% v/v DMSO. Test compounds were serially diluted at 10× assay concentrations in 10% DMSO-containing buffer in 96-well polypropylene plates. Binding reaction mixtures were prepared in 96-well black Dynex microtiter plates by sequential addition of the following assay components to each well: 15 μL of 10× test compound solution, 85 μL of GR-containing baculovirus lysate diluted 1:170 in assay buffer, and 50 μL of 15 nM TAMRA-labeled dexamethasone. Positive controls were reaction mixtures containing no test compound; negative controls (blanks) were reaction mixtures containing 0.7 μM to 2 μM dexamethasone. The binding reactions were incubated for 1 hour at room temperature and then read for fluorescence polarization in the LJL Analyst set to 550 nm excitation and 580 nm emission, with the Rhodamine 561 dichroic mirror installed. IC50 values were determined by iterative non-linear curve fitting of the FP signal data to a 4-parameter logistic equation.

[2] = system: glucocorticoid receptor; test: Glucocorticoid receptor function, one or more of the above assays; type: cell-based; details: in one or more of the above assays, assay not specified
Method: Dexamethasone, a synthetic ligand to the glucocorticoid receptor (GR), induces expression of aromatase in human foreskin fibroblast cells. The activity of aromatase is measured by the conversion of testosterone to estradiol in culture media.
Human foreskin fibroblast cells (ATCC Cat. No. CRL-2429, designation CCD112SK) are plated on 96 well plates at 50,000 cells per well 5 days before use, in Iscove's Modified Dulbecco's Media (GibcoBRL Life Technologies Cat No. 12440-053) supplemented with 10% charcoal filtered FBS (Clonetech Cat No. SH30068) and Gentamycin (GibcoBRL Life Technologies Cat. No. 15710-064). On the day of the experiment, the media in the wells is replaced with fresh media. Cells are treated with test compounds to final concentrations of 10^−5 M to 10^−8 M, and testosterone to a final concentration of 300 ng/mL. Each well has a total volume of 100 μL. Samples are made in duplicates. […] Estradiol in the supernatant is measured using ELISA kits for estradiol (made by ALPCO, obtained from American Laboratory Products Cat. No. 020-DR-2693) according to the manufacture's instruction. […] The extent of aromatase induction by test compounds is expressed as a relative percentage to dexamethasone. […]
Human foreskin fibroblast cells (ATCC Cat. No. CRL-2429) are plated on 96 well plates at 5,000 cells per well the day before use, in Iscove's Modified Dulbecco's Media (GibcoBRL Life Technologies Cat. No. 12440-053) supplemented with 10% charcoal filtered FBS (Clonetech Cat. No. SH30068) and Gentamycin (GibcoBRL Life Technologies Cat. No. 15710-064). […] IL-6 levels in the supernatants are determined by the ELISA kits for IL-6 (MedSystems Diagnostics GmbH, Vienna, Austria, Cat. No. BMS213TEN) according to manufacture's instructions. […]
H4-II-E-C3 cells were incubated overnight in 96 well plates (20,000 cells/100 μL/well) in MEM medium containing 10% heat inactivated FBS and 1% nonessential amino acids. […] After 18 hours, the cells were lysed in a buffer containing 0.1% Triton X-100 and the TAT activity was measured in a photometric assay using tyrosine and alpha-ketoglutarate as substrates. […]

Row | Compound | IC50 [1] | activity as an agonist of the glucocorticoid receptor function [2]
1 | Cc1cc(C)c(S(=O)(=O)NC(CNc2cccc3cnccc23)C(F)(F)F)c(C)c1 (centres unmarked) [2,4,6-Trimethyl-N-[2,2,2-trifluoro-1-(isoquinolin-5-ylaminomethyl)ethyl]benzenesulfonamide] | ≤ 100 nM | –
2 | CC[C@@H](CNc1cccc2cc[nH]c12)NS(=O)(=O)c1c(C)cc(C)cc1C [N—{(S)-1-[(1H-Indol-7-ylamino)methyl]propyl}-2,4,6-trimethylbenzenesulfonamide] | ≤ 100 nM | –
3 | CC[C@@H](CNc1cccc2[nH]ccc12)NS(=O)(=O)c1c(C)cc(C)cc1C [N—{(S)-1-[(1H-Indol-4-ylamino)methyl]propyl}-2,4,6-trimethylbenzenesulfonamide] | ≤ 100 nM | shown activity as an agonist
4 | Cc1cc(C)c(S(=O)(=O)NC(CSc2ncccc2C(F)(F)F)C(F)(F)F)c(C)c1 (centres unmarked) [2,4,6-Trimethyl-N-[2,2,2-trifluoro-1-(3-trifluoromethylpyridin-2-ylsulfanylmethyl)ethyl]benzenesulfonamide] | ≤ 100 nM | –
5 | CC[C@@H](CNc1ccc2c(cnn2-c2ccc(F)cc2)c1)NS(=O)(=O)c1c(N)cc(Cl)cc1Cl [2-Amino-4,6-dichloro-N—((S)-1-{[1-(4-fluorophenyl)-1H-indazol-5-ylamino]methyl}propyl)benzenesulfonamide] | ≤ 100 nM | shown activity as an agonist
6 | Cc1cc(C)c(S(=O)(=O)NC(COc2cccc3cnccc23)C(F)(F)F)c(C)c1 (centres unmarked) [2,4,6-Trimethyl-N-[2,2,2-trifluoro-1-(isoquinolin-5-yloxymethyl)ethyl]benzenesulfonamide] | ≤ 100 nM | –
7 | Cc1cc(C)c(S(=O)(=O)NC(COc2cccc3ncccc23)C(F)(F)F)c(C)c1 (centres unmarked) [2,4,6-Trimethyl-N-[2,2,2-trifluoro-1-(quinolin-5-yloxymethyl)ethyl]benzenesulfonamide] | ≤ 100 nM | –
8 | Cc1cc(C)c(S(=O)(=O)NC(CSc2ccc([N+](=O)[O-])cn2)C(F)(F)F)c(C)c1 (centres unmarked) [2,4,6-Trimethyl-N-[2,2,2-trifluoro-1-(5-nitropyridin-2-ylsulfanylmethyl)ethyl]benzenesulfonamide] | ≤ 100 nM | –
9 | Cc1cc(C)c(S(=O)(=O)NC(CSc2ccccn2)C(F)(F)F)c(C)c1 (centres unmarked) [2,4,6-Trimethyl-N-[2,2,2-trifluoro-1-(pyridin-2-ylsulfanylmethyl)ethyl]benzenesulfonamide] | ≤ 100 nM | –
10 | CC[C@@H](CNc1cccc2[nH]ccc12)NS(=O)(=O)c1c(N)cc(Cl)cc1Cl [2-Amino-4,6-dichloro-N—{(S)-1-[(1H-indol-4-ylamino)methyl]propyl}benzenesulfonamide] | ≤ 100 nM | shown activity as an agonist
11 | Cc1cc(C)c(S(=O)(=O)NC(CSc2nc(C)cc(C(F)(F)F)c2C#N)C(F)(F)F)c(C)c1 (centres unmarked) [N-[1-(3-Cyano-6-methyl-4-trifluoromethylpyridin-2-ylsulfanylmethyl)-2,2,2-trifluoroethyl]-2,4,6-trimethylbenzenesulfonamide] | ≤ 100 nM | –
12 | Cc1cc(C)c(S(=O)(=O)NC(CNc2cccc3ncccc23)C(F)(F)F)c(C)c1 (centres unmarked) [2,4,6-Trimethyl-N-[2,2,2-trifluoro-1-(quinolin-5-ylaminomethyl)ethyl]benzenesulfonamide] | ≤ 100 nM | –
13 | Cc1cc(C)c(S(=O)(=O)NC(CNc2cccc3ccc(C)nc23)C(F)(F)F)c(C)c1 (centres unmarked) [2,4,6-Trimethyl-N-{2,2,2-trifluoro-1-[(2-methylquinolin-8-ylamino)methyl]ethyl}benzenesulfonamide] | ≤ 100 nM | –
14 | CC[C@@H](CNc1ccc2c(cnn2-c2ccc(F)cc2)c1)NS(=O)(=O)c1c(C)cc(C)cc1C [N—((S)-1-{[1-(4-Fluorophenyl)-1H-indazol-5-ylamino]methyl}propyl)-2,4,6-trimethylbenzenesulfonamide] | ≤ 100 nM | –
